These compounds were tested against human RORγt ligand binding domain (RORγt LBD) (Homo sapiens (Human), UniProt P51449) (assay: RORγt ThermoFluor® assay (thermal shift binding)). Details: read-out: ThermoFluor® Assay, Kd.
In short: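 His-tagged human RORγt LBD (0.065 mg/mL) with 60 μM 1,8-ANS in 100 mM Hepes pH 7.0, 10 mM NaCl, 2.5 mM GSH, 0.002% Tween-20 was heated at 1 °C/min.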

human RORγt ligand binding domain (RORγt LBD), sequence (P51449 other isoform, or with tags, fused parts or gaps): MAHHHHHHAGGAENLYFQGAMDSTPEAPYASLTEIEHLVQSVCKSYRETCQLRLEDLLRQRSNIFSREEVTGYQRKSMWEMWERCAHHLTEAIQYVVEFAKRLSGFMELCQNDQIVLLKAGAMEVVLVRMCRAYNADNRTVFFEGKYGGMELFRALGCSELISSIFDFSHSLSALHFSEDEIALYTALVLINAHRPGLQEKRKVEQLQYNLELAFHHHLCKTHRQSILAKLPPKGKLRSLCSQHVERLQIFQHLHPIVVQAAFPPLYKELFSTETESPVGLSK

| Kd [nM] | Compound |
| --- | --- |
| 5.4 | C[C@H](NC(=O)c1nc(C(=O)N2CCC[C@@H]2C)c(-c2cnc(N[C@@H](C)C(F)(F)F)cc2C(F)F)s1)C(C)(C)O [Example 199, 5-(4-(Difluoromethyl)-6-(((S)-1,1,1-trifluoropropan-2-yl)amino)pyridine-3-yl)-N—((S)-3-hydroxy-3-methylburan-2-yl)-4-((S)-2-methylpyrrolidine-1-carbonyl)thiazole-2-carboxamide] |
| 4.9 | C[C@H]1CCCN1C(=O)c1nc(C(=O)NCc2n[nH]c(=O)o2)sc1-c1cnc(NC(C)(C)C)cc1C(F)(F)F [Example 305, (S)-5-(6-(tert-Butylamino)-4-(trifluoromethyl)pyridin-3-yl)-4-(2-methylpyrrolidine-1-carbonyl)-N-((5-oxo-4,5-dihydro-1,3,4-oxadiazol-2-yl)methyl)thiazole-2-carboxamide] |
| 1.1 | C[C@H](NC(=O)c1nc(C(=O)N2CCC[C@@H]2C)c(-c2cnc(NC(C)(C)C)cc2C(F)(F)F)s1)C(C)(C)O [Example 336, 5-[6-(tert-Butylamino)-4-(trifluoromethyl)-3-pyridyl]-N-[(1S)-2-hydroxy-1,2-dimethyl-propyl]-4-[(2S)-2-methylpyrrolidine-1-carbonyl]thiazole-2-carboxamide] |

| Compound | Kd [nM] |
| --- | --- |
| O=C(N[C@H]1C[C@H](O)C1)c1nc(C(=O)N2C3CCC2CC3)c(-c2cnc(N[C@@H](C3CC3)C(F)(F)F)cc2C(F)F)s1 [Example 318, 4-((1s,4s)-7-Azabicyclo[2.2.1]heptane-7-carbonyl)-5-(6-(((S)-1-cyclopropyl-2,2,2-trifluoroethyl)amino)-4-(difluoromethyl)pyridin-3-yl)-N-((1r,3S)-3-hydroxycyclobutyl)thiazole-2-carboxamide] | 8.1 |
